In paper PMC9709406 (Frontiers in Pharmacology, 2022):
“And” between values parts separate entries of the source, which are not always exact repeats. Identical values can stand only once.

Columns and labels:
KYSE410 cells = assay: MTT assay, KYSE410; assay type: cell-based, human; conditions: for IC50: Homo sapiens, KYSE-410, MTT, 48 h, KYSE410, n = 5, read-out: IC50 48 h KYSE410
Excerpt: (§1) The human cancer cells (H1650, H1975, KYSE70, KYSE410 and KYSE450) were purchased from the Type Culture Collection of the Chinese Academy of Sciences (Shanghai, China). The human immortalized normal esophageal epithelial cell line SHEE was donated by Dr. Enmin Li from the Laboratory of Tumor Pathology (Shantou University Medical College, Shantou, Guangdong, China). Drug-resistant cells (H1650TR, H1975OR, KYSE70TR, KYSE410TR and KYSE450TR) were induced by China-US (Henan) Hormel Cancer Institute. The cellswere cultured in RPMI-1640 complete growth medium containing 100 U/mL penicillin-streptomycin and 10% FBS. Based on the above medium formula, 100 nm/L paclitaxel was added in taxol-resistant cells, 100 nm/L gefitinib was added in gefitinib-resistant cells. The cells were incubated at 37 °C in an atmosphere containing 5% of CO2. The compounds were dissolved in DMSO to make a 50 mM stock solution and were diluted to the concentration of working solutions with complete growth medium before administration.
(§2) Cells were seeded in 96-well plates with 2,200–2,500 cells/well in100 μL. One day after seeding, test compounds with the concentration between 0 and 50 μM were added with 0.1% DMSO as control. Five multiple wells for each concentration. After 48 h, MTT was added and incubated in the plate for 1–4 h in the incubator. The absorbance at 490 nm was measured using a microplate reader (Thermo).

H1650 cells = assay: MTT assay for cell proliferation and cytotoxicity, H1650; assay type: cell-based; conditions: Homo sapiens, NCI-H1650, 48 h, H1650, n = 5
Excerpt: as §1, §2

H1975 cells = assay: MTT assay for cell proliferation and cytotoxicity, H1975; assay type: cell-based, human; conditions: Homo sapiens, NCI-H1975, 48 h, MTT, 48 h, H1975, n = 5; read-out: IC50 48 h H1975
Excerpt: as §1
as §2, with “After 48 h, MTT was added and incubated in the plate for 1–4 h in the incubator.” left out

SHEE cells = assay: MTT assay, normal esophageal epithelial cell line SHEE; assay type: cell-based; conditions: Homo sapiens, 48 h, n = 5
Excerpt: as §1, §2

KYSE450 cells = assay: MTT assay, KYSE450; assay type: cell-based, human; conditions: for IC50: Homo sapiens, KYSE-450, MTT, 48 h, KYSE450, n = 5, read-out: IC50 48 h KYSE450; for absorbance 490 nm, single well / mean absorbance 490 nm (row G) / mean absorbance 490 nm minus background (row H): KYSE450
Excerpt: as §1, §2

KYSE70 cells = assay: MTT assay, KYSE70; assay type: cell-based, human; conditions: for IC50: Homo sapiens, KYSE-70, MTT, 48 h, KYSE70, n = 5
Excerpt: as §1, §2

[1] = concentration 12.5 (unit not given)
[2] = concentration 25 (unit not given)
[3] = concentration 50 (unit not given)
[4] = concentration 100 (unit not given)

SMILES: c1ccc(Cn2cc(-c3cccc(Nc4ncnc5cc6c(cc45)OCCOCCOCCO6)c3)nn2)cc1 [compound 3r]
- IC50 (KYSE410 cells): 9.23 ± 0.97 µM
- blank-corrected absorbance 490 nm relative to control (fraction) (KYSE410 cells; KYSE410, concentration 12.5): 0.3227
- inhibition (1 minus fraction of control) (KYSE410 cells; KYSE410, concentration 12.5): 0.6773
- blank-corrected absorbance 490 nm relative to control (fraction) (KYSE410 cells; KYSE410, concentration 25): 0.3216
- inhibition (1 minus fraction of control) (KYSE410 cells; KYSE410, concentration 25): 0.6784
- blank-corrected absorbance 490 nm relative to control (fraction) (KYSE410 cells; KYSE410, concentration 50): 0.3502
- inhibition (1 minus fraction of control) (KYSE410 cells; KYSE410, concentration 50): 0.6498
- blank-corrected absorbance 490 nm relative to control (fraction) (KYSE410 cells; KYSE410, concentration 100): 0.1592
- inhibition (1 minus fraction of control) (KYSE410 cells; KYSE410, concentration 100): 0.8408
- IC50 (H1650 cells): 19.6 ± 1.72 µM
- IC50 (H1975 cells): 19.2 ± 1.59 µM
- melting point: 146 to 149 °C
- IC50 (SHEE cells): 21 ± 1.11 µM
- IC50 (KYSE450 cells): 28.1 ± 1.18 µM
- absorbance 490 nm, single well (KYSE450 cells; [1]): 0.6476 and 0.598 and 0.6398 and 0.6662
- mean absorbance 490 nm (row G) (KYSE450 cells; [1]): 0.6379
- mean absorbance 490 nm minus background (row H) (KYSE450 cells; [1]): 0.586
- absorbance 490 nm, single well (KYSE450 cells; [2]): 0.4195 and 0.4416 and 0.4375 and 0.4182
- mean absorbance 490 nm (row G) (KYSE450 cells; [2]): 0.4292
- mean absorbance 490 nm minus background (row H) (KYSE450 cells; [2]): 0.3773
- absorbance 490 nm, single well (KYSE450 cells; [3]): 0.1593 and 0.152 and 0.1434
- mean absorbance 490 nm (row G) (KYSE450 cells; [3]): 0.1516
- mean absorbance 490 nm minus background (row H) (KYSE450 cells; [3]): 0.09971
- absorbance 490 nm, single well (KYSE450 cells; [4]): 0.127 and 0.1396 and 0.1367
- mean absorbance 490 nm (row G) (KYSE450 cells; [4]): 0.1344
- mean absorbance 490 nm minus background (row H) (KYSE450 cells; [4]): 0.08257
- IC50 (KYSE70 cells): 7.32 ± 0.62 µM
- blank-corrected absorbance 490 nm relative to control (fraction) (KYSE70 cells; KYSE70, concentration 12.5): 0.2722
- inhibition (1 minus fraction of control) (KYSE70 cells; KYSE70, concentration 12.5): 0.7278
- blank-corrected absorbance 490 nm relative to control (fraction) (KYSE70 cells; KYSE70, concentration 25): 0.1457
- inhibition (1 minus fraction of control) (KYSE70 cells; KYSE70, concentration 25): 0.8543
- blank-corrected absorbance 490 nm relative to control (fraction) (KYSE70 cells; KYSE70, concentration 50): 0.1803
- inhibition (1 minus fraction of control) (KYSE70 cells; KYSE70, concentration 50): 0.8197
- blank-corrected absorbance 490 nm relative to control (fraction) (KYSE70 cells; KYSE70, concentration 100): 0.1267
- inhibition (1 minus fraction of control) (KYSE70 cells; KYSE70, concentration 100): 0.8733

SMILES: Cc1ccc(Cn2cc(-c3cccc(Nc4ncnc5cc6c(cc45)OCCOCCOCCO6)c3)nn2)cc1 [compound 3o]
- IC50 (KYSE410 cells): > 50 µM
- IC50 (H1650 cells): 5.6 ± 0.29 µM
- IC50 (H1975 cells): 8.7 ± 0.66 µM
- melting point: 124 to 127 °C
- IC50 (SHEE cells): 22.4 ± 1.26 µM
- IC50 (KYSE450 cells): 4.81 ± 0.36 µM
- IC50 (KYSE70 cells): 14.6 ± 0.96 µM

SMILES: COc1cccc(-n2cc(-c3cccc(Nc4ncnc5cc6c(cc45)OCCOCCOCCO6)c3)nn2)c1 [compound 3i]
- IC50 (KYSE410 cells): > 50 µM
- blank-corrected absorbance 490 nm relative to control (fraction) (KYSE410 cells; KYSE410, concentration 12.5): 0.4787
- blank-corrected absorbance 490 nm relative to control (fraction) (KYSE410 cells; KYSE410, concentration 25): 0.6596
- blank-corrected absorbance 490 nm relative to control (fraction) (KYSE410 cells; KYSE410, concentration 50): 1.468
- blank-corrected absorbance 490 nm relative to control (fraction) (KYSE410 cells; KYSE410, concentration 100): 0.817
- IC50 (H1650 cells): 6.25 ± 0.54 µM
- IC50 (H1975 cells): 19.7 ± 1.07 µM
- melting point: 122 to 125 °C
- IC50 (SHEE cells): 28.1 ± 1.38 µM
- IC50 (KYSE450 cells): 10 ± 0.93 µM
- absorbance 490 nm, single well (KYSE450 cells; [1]): 0.3641 and 0.3196 and 0.3651
- mean absorbance 490 nm (row G) (KYSE450 cells; [1]): 0.3496
- mean absorbance 490 nm minus background (row H) (KYSE450 cells; [1]): 0.2948
- absorbance 490 nm, single well (KYSE450 cells; [2]): 0.1604 and 0.1809 and 0.1731
- mean absorbance 490 nm (row G) (KYSE450 cells; [2]): 0.1715
- mean absorbance 490 nm minus background (row H) (KYSE450 cells; [2]): 0.1167
- absorbance 490 nm, single well (KYSE450 cells; [3]): 0.1052 and 0.1046 and 0.0923 and 0.1026
- mean absorbance 490 nm (row G) (KYSE450 cells; [3]): 0.1012
- mean absorbance 490 nm minus background (row H) (KYSE450 cells; [3]): 0.04637
- absorbance 490 nm, single well (KYSE450 cells; [4]): 0.0702 and 0.0745 and 0.0767 and 0.0714
- mean absorbance 490 nm (row G) (KYSE450 cells; [4]): 0.0732
- mean absorbance 490 nm minus background (row H) (KYSE450 cells; [4]): 0.0184
- IC50 (KYSE70 cells): 7.02 ± 0.64 µM
- blank-corrected absorbance 490 nm relative to control (fraction) (KYSE70 cells; KYSE70, concentration 12.5): 0.1099
- inhibition (1 minus fraction of control) (KYSE70 cells; KYSE70, concentration 12.5): 0.8901
- blank-corrected absorbance 490 nm relative to control (fraction) (KYSE70 cells; KYSE70, concentration 25): 0.08489
- inhibition (1 minus fraction of control) (KYSE70 cells; KYSE70, concentration 25): 0.9151
- blank-corrected absorbance 490 nm relative to control (fraction) (KYSE70 cells; KYSE70, concentration 50): 0.007475
- inhibition (1 minus fraction of control) (KYSE70 cells; KYSE70, concentration 50): 0.9925
- blank-corrected absorbance 490 nm relative to control (fraction) (KYSE70 cells; KYSE70, concentration 100): -0.01388
- inhibition (1 minus fraction of control) (KYSE70 cells; KYSE70, concentration 100): 1.014

SMILES: Brc1cccc(Cn2cc(-c3cccc(Nc4ncnc5cc6c(cc45)OCCOCCOCCO6)c3)nn2)c1 [compound 3q]
- IC50 (KYSE410 cells): > 50 µM
- IC50 (H1650 cells): 21.5 ± 1.87 µM
- IC50 (H1975 cells): 47.3 ± 2.13 µM
- melting point: 113 to 116 °C
- IC50 (SHEE cells): > 50 µM
- IC50 (KYSE450 cells): 21.8 ± 1.12 µM
- IC50 (KYSE70 cells): 20.7 ± 1.73 µM

SMILES: COc1cccc(Cn2cc(-c3cccc(Nc4ncnc5cc6c(cc45)OCCOCCOCCO6)c3)nn2)c1 [compound 3t]
- IC50 (KYSE410 cells): > 50 µM
- IC50 (H1650 cells): 21 ± 1.91 µM
- IC50 (H1975 cells): 20 ± 1.52 µM
- melting point: 131 to 134 °C
- IC50 (SHEE cells): 33.3 ± 1.99 µM
- IC50 (KYSE450 cells): 45.6 ± 2.01 µM
- IC50 (KYSE70 cells): > 50 µM

SMILES: Ic1ccccc1Cn1cc(-c2cccc(Nc3ncnc4cc5c(cc34)OCCOCCOCCO5)c2)nn1 [compound 3p]
- IC50 (KYSE410 cells): > 50 µM
- IC50 (H1650 cells): 4.41 ± 0.31 µM
- IC50 (H1975 cells): 39.5 ± 1.91 µM
- melting point: 121 to 123 °C
- IC50 (SHEE cells): > 50 µM
- IC50 (KYSE450 cells): > 50 µM
- IC50 (KYSE70 cells): 19.9 ± 1.31 µM
